Experimental data from ChEMBL document CHEMBL4627324, “Design and synthesis of novel 2-arylbenzimidazoles as selective mutant isocitrate dehydrogenase 2 R140Q inhibitors” (Bioorg Med Chem Lett, 2020).
Several values for one entry are separate records, joined by “and”; a condition that tells them apart may be missing. Identical values can stand only once.

Assays:
[1] = molecular target: T1, Isocitrate dehydrogenase [NADP], mitochondrial (Homo sapiens, UniProt P48735); experiment: Inhibition of wild type IDH2 (unknown origin)
T1 sequence (P48735 whole entry): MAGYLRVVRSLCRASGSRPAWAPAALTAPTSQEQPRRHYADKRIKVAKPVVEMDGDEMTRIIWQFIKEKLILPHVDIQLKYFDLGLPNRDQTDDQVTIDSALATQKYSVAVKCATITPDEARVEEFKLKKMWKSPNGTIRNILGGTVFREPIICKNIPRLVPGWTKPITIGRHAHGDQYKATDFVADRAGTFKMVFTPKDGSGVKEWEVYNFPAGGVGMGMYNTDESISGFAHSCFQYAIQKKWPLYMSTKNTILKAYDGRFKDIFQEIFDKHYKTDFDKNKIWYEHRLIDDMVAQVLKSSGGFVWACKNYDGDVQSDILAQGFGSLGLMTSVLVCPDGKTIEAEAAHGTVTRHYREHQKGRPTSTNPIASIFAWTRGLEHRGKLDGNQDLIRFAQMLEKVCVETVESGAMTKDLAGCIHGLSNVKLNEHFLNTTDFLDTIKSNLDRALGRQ

[2] = molecular target: Isocitrate dehydrogenase [NADP] cytoplasmic (Homo sapiens, UniProt O75874, R132H); experiment: Inhibition of IDH1 R132H mutant (unknown origin)
[3] = molecular target: Isocitrate dehydrogenase [NADP] cytoplasmic (Homo sapiens, UniProt O75874); experiment: Inhibition of wild type IDH1 (unknown origin)
[4] = molecular target: Isocitrate dehydrogenase [NADP], mitochondrial (Homo sapiens, UniProt P48735, R172K); experiment: Inhibition of IDH2 R172K mutant (unknown origin)
[5] = molecular target: Isocitrate dehydrogenase [NADP], mitochondrial (Homo sapiens, UniProt P48735, R140Q); experiment: Inhibition of IDH2 R140Q mutant (unknown origin)
[6] = molecular target: Isocitrate dehydrogenase [NADP] cytoplasmic (Homo sapiens, UniProt O75874, R132C); experiment: Inhibition of IDH1 R132C mutant (unknown origin)
Isocitrate dehydrogenase [NADP] cytoplasmic (Homo sapiens, UniProt O75874, R132C), sequence (O75874 2-414 R132C limits assumed): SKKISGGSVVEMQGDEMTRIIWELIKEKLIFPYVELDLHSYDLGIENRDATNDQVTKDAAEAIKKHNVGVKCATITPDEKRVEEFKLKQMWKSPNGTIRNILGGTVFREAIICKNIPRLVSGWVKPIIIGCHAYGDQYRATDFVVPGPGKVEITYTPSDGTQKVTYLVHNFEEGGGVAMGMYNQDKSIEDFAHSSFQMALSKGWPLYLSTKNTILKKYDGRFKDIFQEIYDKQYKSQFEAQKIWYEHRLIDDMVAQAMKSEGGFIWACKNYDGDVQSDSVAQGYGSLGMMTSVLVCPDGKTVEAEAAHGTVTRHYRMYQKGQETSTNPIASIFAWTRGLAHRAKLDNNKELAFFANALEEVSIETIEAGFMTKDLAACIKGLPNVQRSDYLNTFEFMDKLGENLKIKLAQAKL

Isocitrate dehydrogenase [NADP] cytoplasmic (Homo sapiens, UniProt O75874, R132H), sequence (O75874 2-414 R132H limits assumed): as the sequence (O75874 2-414 R132C limits assumed) above, with C131H counted along it
Isocitrate dehydrogenase [NADP], mitochondrial (Homo sapiens, UniProt P48735, R172K), sequence (P48735 40-452 R172K limits assumed): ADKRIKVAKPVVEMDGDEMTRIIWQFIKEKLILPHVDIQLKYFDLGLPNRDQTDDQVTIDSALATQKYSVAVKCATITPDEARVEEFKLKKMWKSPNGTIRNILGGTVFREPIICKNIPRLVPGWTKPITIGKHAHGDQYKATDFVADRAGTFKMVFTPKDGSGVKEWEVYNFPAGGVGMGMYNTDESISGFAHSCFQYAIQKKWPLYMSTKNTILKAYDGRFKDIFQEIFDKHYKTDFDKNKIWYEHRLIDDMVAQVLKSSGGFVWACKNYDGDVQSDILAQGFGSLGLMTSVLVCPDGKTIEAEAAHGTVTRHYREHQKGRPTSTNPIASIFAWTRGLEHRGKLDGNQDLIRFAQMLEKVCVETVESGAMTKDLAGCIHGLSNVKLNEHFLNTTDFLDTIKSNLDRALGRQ
Isocitrate dehydrogenase [NADP] cytoplasmic (Homo sapiens, UniProt O75874), sequence (O75874 whole entry): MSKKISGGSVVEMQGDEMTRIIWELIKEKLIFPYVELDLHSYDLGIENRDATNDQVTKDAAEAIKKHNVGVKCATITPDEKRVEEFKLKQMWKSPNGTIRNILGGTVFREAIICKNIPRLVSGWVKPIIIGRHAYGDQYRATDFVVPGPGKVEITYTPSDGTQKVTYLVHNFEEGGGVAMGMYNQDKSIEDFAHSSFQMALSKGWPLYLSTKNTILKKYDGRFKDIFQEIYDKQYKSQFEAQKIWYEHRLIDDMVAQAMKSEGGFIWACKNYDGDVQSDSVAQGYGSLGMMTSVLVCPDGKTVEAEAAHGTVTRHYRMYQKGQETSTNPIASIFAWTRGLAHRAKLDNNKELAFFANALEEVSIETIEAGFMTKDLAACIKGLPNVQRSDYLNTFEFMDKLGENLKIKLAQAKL
Isocitrate dehydrogenase [NADP], mitochondrial (Homo sapiens, UniProt P48735, R140Q), sequence (P48735 40-452 R140Q limits assumed): as the sequence (P48735 40-452 R172K limits assumed) above, with R101Q, K133R counted along it

| Structure (SMILES) | IC50 [1] | IC50 [2] | IC50 [3] | IC50 [4] | IC50 [5] | IC50 [6] |
| --- | --- | --- | --- | --- | --- | --- |
| Cc1ccccc1C(C(=O)NC1CCCCC1)N(C(=O)Cn1ccnc1C)c1cccc(F)c1 (configuration not stated) | > 100 µM | 0.17 µM | > 100 µM | > 100 µM | > 100 µM | 0.39 µM |
| O=C(Nc1cccc(C(F)(F)F)c1)Nc1cc(S(=O)(=O)NC2CC2)ccc1-c1ccsc1 |  | > 100 µM | > 100 µM |  |  | > 100 µM |
| O=S(=O)(NC1CC1)c1ccc(-c2ccsc2)c(Nc2nc3ccc(F)c(F)c3[nH]2)c1 |  |  |  |  | 13.8 µM |  |
| CCOC(=O)c1ccc2nc(Nc3cc(S(=O)(=O)NC4CC4)ccc3-c3ccsc3)[nH]c2c1 |  |  |  |  | > 100 µM |  |
| O=S(=O)(NC1CC1)c1ccc(-c2ccsc2)c(Nc2nc3cc(Br)ccc3[nH]2)c1 | > 100 µM | > 100 µM | > 100 µM | > 100 µM | 2.02 µM and 0.26 µM | > 100 µM |
| O=S(=O)(NC1CC1)c1ccc(-c2ccsc2)c(Nc2nc3ccc(F)c(Cl)c3[nH]2)c1 |  |  |  |  | 10.3 µM |  |
| COC(=O)c1ccc2nc(Nc3cc(S(=O)(=O)NC4CC4)ccc3-c3ccsc3)[nH]c2c1 |  |  |  |  | > 100 µM |  |
| N#Cc1ccc2nc(Nc3cc(S(=O)(=O)NC4CC4)ccc3-c3ccsc3)[nH]c2c1 |  |  |  |  | 97.9 µM |  |
| O=S(=O)(NC1CC1)c1ccc(-c2ccsc2)c(Nc2nc3ccc(Cl)c(Cl)c3[nH]2)c1 |  |  |  |  | 2.72 µM |  |
| Cc1cc(C)c2[nH]c(Nc3cc(S(=O)(=O)NC4CC4)ccc3-c3ccsc3)nc2c1 | > 100 µM | > 100 µM | > 100 µM | 51.8 µM | 0.96 µM | > 100 µM |
| Cc1ccc2nc(Nc3cc(S(=O)(=O)NC4CC4)ccc3-c3ccsc3)[nH]c2c1C |  |  |  |  | 1.61 µM |  |
| O=S(=O)(NC1CC1)c1ccc(-c2ccsc2)c(Nc2nc3ccc(Br)c(Br)c3[nH]2)c1 | > 100 µM | > 100 µM | > 100 µM | > 100 µM | 0.65 µM | > 100 µM |
| O=S(=O)(NC1CC1)c1ccc(-c2ccsc2)c(Nc2nc3cc(F)cc(F)c3[nH]2)c1 |  |  |  |  | 4.94 µM |  |
| COc1ccc2nc(Nc3cc(S(=O)(=O)NC4CC4)ccc3-c3ccsc3)[nH]c2c1 |  |  |  |  | 46.9 µM |  |
| O=S(=O)(NC1CC1)c1ccc(-c2ccsc2)c(Nc2nc3ccc(Cl)cc3[nH]2)c1 |  |  |  |  | 11.9 µM |  |
| O=S(=O)(NC1CC1)c1ccc(-c2ccsc2)c(Nc2nc3ccc(C(F)(F)F)c(Cl)c3[nH]2)c1 |  |  |  |  | 4.34 µM |  |
| O=S(=O)(NC1CC1)c1ccc(-c2ccsc2)c(Nc2nc3ccc(C(F)(F)F)cc3[nH]2)c1 |  |  |  |  | 14.1 µM |  |
| O=S(=O)(NC1CC1)c1ccc(-c2ccsc2)c(Nc2nc3cc(F)ccc3[nH]2)c1 | > 100 µM | > 100 µM | > 100 µM | 78.8 µM | 0.73 µM | > 100 µM |
| O=S(=O)(NC1CC1)c1ccc(-c2ccsc2)c(Nc2nc3ccccc3[nH]2)c1 |  |  |  |  | 5.41 µM |  |
| CC(C)(O)CNc1nc(Nc2ccnc(C(F)(F)F)c2)nc(-c2cccc(C(F)(F)F)n2)n1 [ENASIDENIB] | > 100 µM | > 100 µM | > 100 µM | 1.08 µM | 0.31 µM | > 100 µM |
